# Measured values published in ChEMBL document CHEMBL3872245, “A novel curcumin derivative which inhibits P-glycoprotein, arrests cell cycle and induces apoptosis in multidrug resistance cells” (Bioorg Med Chem, 2017).
# The source made the active and inactive calls. No cut-off for these calls is given here.
# Assays:
# [1] = Antiproliferative activity against human NCI-H460 cells measured after 48 hrs by sulforhodamine B assay; format: functional; settings: NCI-H460, 48 h
# [2] = test system: H460; experiment: Inhibition of P-gp in drug resistant human H460 cells assessed as reduction in cell viability measured after 48 hrs by sulforhodamine B assay; format: cell-based
# [3] = Antiproliferative activity against human K562 cells measured after 48 hrs by Presto blue assay; format: functional; settings: K562, 48 h
# [4] = test system: K562; experiment: Inhibition of P-gp in doxorubicin resistant human K562 cells assessed as reduction in cell viability measured after 48 hrs by Presto blue assay; format: cell-based
# [5] = Chemical stability of the compound in pH 6.7 potassium phosphate buffer at 10^-4 M incubated for overnight by HPLC method; format: physicochemical; settings: pH 6.7, 100 µM
# [6] = Chemical stability of the compound in pH 9.1 sodium boric acid buffer at 10^-4 M incubated for overnight by HPLC method; format: physicochemical; settings: pH 9.1, 100 µM
# [7] = Chemical stability of the compound in pH 5 sodium acetate buffer at 10^-4 M incubated for overnight by HPLC method; format: physicochemical; settings: pH 5, 100 µM
# [8] = Chemical stability of the compound in pH 7.4 phosphate buffered saline at 10^-4 M incubated for overnight by HPLC method; format: physicochemical; settings: buffer, pH 7.4, 100 µM
# [9] = Chemical stability of the compound in pH 1 HCl buffer at 10^-4 M incubated for 75 mins by HPLC method; format: physicochemical; settings: pH 1, 1.25 h, 100 µM
# [10] = Stability of the compound in RPMI medium at 1.5 10^-3 M incubated for 5 to 30 mins under dark condition by HPLC method; format: physicochemical
# [11] = Stability of the compound at -20 degreeC at 10^-4 M incubated for 6 to 12 days under dark condition by HPLC method; format: physicochemical; settings: 100 µM
# [12] = Stability of the compound at 4 degreeC at 10^-4 M incubated for 6 to 12 days under dark condition by HPLC method; format: physicochemical; settings: 100 µM
# [13] = Stability of the compound at room temperature at 10^-4 M incubated for 6 to 12 days under dark condition by HPLC method; format: physicochemical; settings: 100 µM
# [14] = Stability of the compound in HEPES medium at 1.5 10^-3 M incubated for 5 to 30 mins under dark condition by HPLC method; format: physicochemical
# [15] = test system: K562; experiment: Inhibition of P-gp in doxorubicin resistant human K562 cells assessed as increase in accumulation of rhodamine 123 at 10 uM measured after 1 hr by flow cytometry; format: cell-based
# [16] = test system: K562; experiment: Induction of apoptosis in doxorubicin resistant human K562 cells decrease in pro-caspase 3 level at 20 to 40 uM measured after 48 hrs by Western blot method; format: functional, cell-based
# [17] = Down regulation of p-gp expression in doxorubicin resistant human K562 cells at 20 to 30 uM measured after 48 hrs by Western blot method; format: functional, cell-based
# [18] = Cell cycle arrest in doxorubicin resistant human K562 cells assessed as increase in G2/M phase at 20 uM measured after 48 hrs by propidium iodide staining based flow cytometry; format: functional
# [19] = Cell cycle arrest in doxorubicin resistant human K562 cells assessed as decrease in G0/G1 phase at 20 uM measured after 48 hrs by propidium iodide staining based flow cytometry; format: functional
# [20] = Cell cycle arrest in doxorubicin resistant human K562 cells assessed as decrease in S phase at 20 uM measured after 48 hrs by propidium iodide staining based flow cytometry; format: functional
# [21] = Cell cycle arrest in doxorubicin resistant human K562 cells assessed as accumulation at G0/G1 phase at 30 to 40 uM measured after 48 hrs by propidium iodide staining based flow cytometry; format: functional
# [22] = Cell cycle arrest in doxorubicin resistant human K562 cells assessed as decrease in G2/M phase at 30 to 40 uM measured after 48 hrs by propidium iodide staining based flow cytometry; format: functional
# [23] = test system: K562; experiment: Induction of apoptosis in doxorubicin resistant human K562 cells at 20 uM by Annexin V-FITC/propidium iodide staining based flow cytometry; format: functional
# [24] = test system: K562; experiment: Induction of apoptosis in doxorubicin resistant human K562 cells at 30 uM by Annexin V-FITC/propidium iodide staining based flow cytometry; format: functional
# [25] = test system: K562; experiment: Induction of apoptosis in doxorubicin resistant human K562 cells at 40 uM by Annexin V-FITC/propidium iodide staining based flow cytometry; format: functional
# [26] = Up regulation of p53 expression in doxorubicin resistant human K562 cells at 20 to 40 uM measured after 48 hrs by Western blot method; format: functional, cell-based
# [27] = Down regulation of cyclin B1 expression in doxorubicin resistant human K562 cells at 20 to 40 uM measured after 48 hrs by Western blot method; format: functional, cell-based
# [28] = test system: K562; experiment: Induction of apoptosis in doxorubicin resistant human K562 cells assessed as increase in PARP-1 cleavage at 20 to 40 uM measured after 48 hrs by Western blot method; format: functional, cell-based
# [29] = test system: K562; experiment: Induction of apoptosis in doxorubicin resistant human K562 cells assessed as decrease in pro-caspase 3 level at 2.7 to 5.4 uM measured after 48 hrs by Western blot method; format: functional, cell-based
# [30] = Down regulation of p-gp expression in doxorubicin resistant human K562 cells at 2.7 to 4.1 uM measured after 48 hrs by Western blot method; format: functional, cell-based
# [31] = Cell cycle arrest in doxorubicin resistant human K562 cells assessed as increase in G2/M phase at 2.7 uM measured after 48 hrs by propidium iodide staining based flow cytometry; format: functional
# [32] = Cell cycle arrest in doxorubicin resistant human K562 cells assessed as decrease in G0/G1 phase at 2.7 uM measured after 48 hrs by propidium iodide staining based flow cytometry; format: functional
# [33] = Cell cycle arrest in doxorubicin resistant human K562 cells assessed as decrease in S phase at 2.7 uM measured after 48 hrs by propidium iodide staining based flow cytometry; format: functional
# [34] = Cell cycle arrest in doxorubicin resistant human K562 cells assessed as accumulation at G2/M phase at 4.1 to 5.4 uM measured after 48 hrs by propidium iodide staining based flow cytometry; format: functional
# [35] = test system: K562; experiment: Induction of apoptosis in doxorubicin resistant human K562 cells at 2.7 uM by Annexin V-FITC/propidium iodide staining based flow cytometry; format: functional
# [36] = test system: K562; experiment: Induction of apoptosis in doxorubicin resistant human K562 cells at 4.1 uM by Annexin V-FITC/propidium iodide staining based flow cytometry; format: functional
# [37] = test system: K562; experiment: Induction of apoptosis in doxorubicin resistant human K562 cells at 5.4 uM by Annexin V-FITC/propidium iodide staining based flow cytometry; format: functional
# [38] = Up regulation of p53 expression in doxorubicin resistant human K562 cells at 2.7 to 5.4 uM measured after 48 hrs by Western blot method; format: functional, cell-based
# [39] = Down regulation of cyclin B1 expression in doxorubicin resistant human K562 cells at 2.7 to 5.4 uM measured after 48 hrs by Western blot method; format: functional, cell-based
# [40] = test system: K562; experiment: Induction of apoptosis in doxorubicin resistant human K562 cells assessed as increase in PARP-1 cleavage at 2.7 to 5.4 uM measured after 48 hrs by Western blot method; format: functional, cell-based
# [41] = test system: K562; experiment: Inhibition of P-gp in doxorubicin resistant human K562 cells assessed as reduction in cell viability measured after 48 hrs by SRB assay; format: cell-based
SMILES,GI50 [2],GI50 [4],Stability [5],Stability [6],Stability [7],Stability [8],Stability [9],Stability [10],Stability [11],Stability [12],Stability [13],Stability [14],GI50 [1],GI50 [3],also measured
COc1cc(/C=C/C(=O)/C=C/c2ccc(O)c(OC)c2)ccc1O,1.8 µM,20.7 µM,Stable,Stable,Stable,Stable,Stable,Stable,Unstable,Unstable,Unstable,Stable,1.47 µM,9.33 µM,–
COc1ccc(CCN(C)CCCC(C#N)(c2ccc(OC)c(OC)c2)C(C)C)cc1OC (stereo not drawn),–,–,–,–,–,–,–,–,–,–,–,–,–,–,inhibition [15]: Active
COc1cc(/C=C/C(C)=O)ccc1O [DEHYDROZINGERONE],62.7 µM,92 µM,Stable,Stable,Stable,Stable,Stable,Stable,Stable,Stable,Stable,Stable,64.8 µM,85.3 µM,–
COc1cc(/C=C/C(=O)CC(=O)/C=C/c2ccc(O)c(OC)c2)ccc1O [CURCUMIN],26 µM,19.7 µM,Unstable,Unstable,Unstable,Unstable,Unstable,Stable,Stable,Stable,Stable,Stable,27.3 µM,21.7 µM,Activity [16]: Active; Activity [17]: Active; Activity [18]: Active; Activity [19]: Active; Activity [20]: Active; Activity [21]: Active; Activity [22]: Active; Activity [23]: 11.8%; Activity [24]: 26.9%; Activity [25]: 32%; Activity [26]: Active; Activity [27]: Active; Activity [28]: Active
C=CCOc1ccc(/C=C/C(C)=O)cc1OC,39.3 µM,63.3 µM,–,–,–,–,–,–,–,–,–,–,41.5 µM,68.7 µM,–
COc1cc(/C=C/C(C)=O)ccc1OCc1cn(CCO[C@@H]2O[C@H](COC(C)=O)[C@H](OC(C)=O)[C@H](OC(C)=O)[C@H]2NC(C)=O)nn1,> 150 µM,> 150 µM,–,–,–,–,–,–,–,–,–,–,> 150 µM,> 150 µM,–

# The next lines start with results.
GI50 [2],GI50 [4],Stability [5],Stability [6],Stability [7],Stability [8],Stability [9],Stability [10],Stability [11],Stability [12],Stability [13],Stability [14],SMILES,GI50 [1],GI50 [3],also measured
> 150 µM,> 150 µM,–,–,–,–,–,–,–,–,–,–,COC(=O)COc1ccc(/C=C/C(C)=O)cc1OC,> 150 µM,> 150 µM,–
> 150 µM,> 150 µM,–,–,–,–,–,–,–,–,–,–,COc1cc(/C=C/C(=O)CC(=O)/C=C/c2ccc(OCc3cn(CCO[C@@H]4O[C@H](COC(C)=O)[C@H](OC(C)=O)[C@H](OC(C)=O)[C@H]4NC(C)=O)nn3)c(OC)c2)ccc1OCc1cn(CCO[C@@H]2O[C@H](COC(C)=O)[C@H](OC(C)=O)[C@H](OC(C)=O)[C@H]2NC(C)=O)nn1,> 150 µM,> 150 µM,–
41 µM,> 150 µM,–,–,–,–,–,–,–,–,–,–,COc1cc(/C=C/C(C)=O)ccc1OCCCNC(=O)OC(C)(C)C,55.2 µM,> 150 µM,inhibition [15]: Active
2.6 µM,2.73 µM,Stable,Stable,Stable,Stable,Stable,Stable,Stable,Stable,Stable,Stable,C#CCOc1ccc(/C=C/C(=O)CC(=O)/C=C/c2ccc(OCC#C)c(OC)c2)cc1OC,3.4 µM,6.3 µM,Activity [29]: Active; inhibition [15]: Active; Activity [30]: Active; Activity [31]: Active; Activity [32]: Active; Activity [33]: Active; Activity [34]: Active; Activity [35]: 9.3%; Activity [36]: 11.3%; Activity [37]: 14.8%; Activity [38]: Active; Activity [39]: Active; Activity [40]: Active
> 0.15 µM,> 0.15 µM,–,–,–,–,–,–,–,–,–,–,COc1cccc2c1C(=O)c1c(O)c3c(c(O)c1C2=O)C[C@@](O)(C(=O)CO)C[C@@H]3O[C@H]1C[C@H](N)[C@H](O)[C@H](C)O1 [DOXORUBICIN],0.02 µM,0.065 µM,GI50 [41]: 11.6 µM
41.7 µM,133 µM,–,–,–,–,–,–,–,–,–,–,C#CCOc1ccc(/C=C/C(C)=O)cc1OC,52.7 µM,> 150 µM,–
